Laboratory results as given in PubChem BioAssay AID248 (DTP/NCI, 2004).
Where “and” joins values, the source holds several entries; their conditions need not be identical. Equal entries are not always repeated. Toxic doses and inconclusive results are not listed.

Tested on: L1210 leukemia ip in BDF1 mice, survival T/C
Assay: NCI In Vivo Anticancer Drug Screen. Data for tumor model L1210 Leukemia (intraperitoneal) in B6D2F1 (BDF1) mice
Conditions: endpoint: mean survival time, higher = longer survival
Method in brief: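 Each compound was tested against a transplantable tumor grown in mice. The endpoint was survival, with treated animals benchmarked against vehicle controls as a simple ratio.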

[1] = dose: 100.0 mg/kg/injection, schedule: Q01DX001 (ip), vehicle: saline
[2] = dose: 200.0 mg/kg/injection, schedule: Q01DX001 (ip), vehicle: saline
[3] = dose: 400.0 mg/kg/injection, schedule: Q01DX001 (ip), vehicle: saline
[4] = dose: 100.0 mg/kg/injection, schedule: Q01DX009 (ip), vehicle: saline with Tween-80
[5] = dose: 100.0 mg/kg/injection, schedule: Q04DX002 (ip), vehicle: saline with Tween-80
[6] = dose: 100.0 mg/kg/injection, schedule: Q04DX003 (ip), vehicle: saline with Tween-80
[7] = dose: 200.0 mg/kg/injection, schedule: Q01DX009 (ip), vehicle: saline with Tween-80
[8] = dose: 200.0 mg/kg/injection, schedule: Q04DX002 (ip), vehicle: saline with Tween-80
[9] = dose: 200.0 mg/kg/injection, schedule: Q04DX003 (ip), vehicle: saline with Tween-80
[10] = dose: 400.0 mg/kg/injection, schedule: Q01DX009 (ip), vehicle: saline with Tween-80
[11] = dose: 400.0 mg/kg/injection, schedule: Q04DX002 (ip), vehicle: saline with Tween-80
[12] = dose: 400.0 mg/kg/injection, schedule: Q04DX003 (ip), vehicle: saline with Tween-80
[13] = dose: 50.0 mg/kg/injection, schedule: Q01DX001 (ip), vehicle: carboxymethylcellulose (CMC)
[14] = dose: 100.0 mg/kg/injection, schedule: Q01DX001 (ip), vehicle: carboxymethylcellulose (CMC)
[15] = dose: 200.0 mg/kg/injection, schedule: Q01DX001 (ip), vehicle: carboxymethylcellulose (CMC)
[16] = dose: 400.0 mg/kg/injection, schedule: Q01DX001 (ip), vehicle: carboxymethylcellulose (CMC)
[17] = dose: 100.0 mg/kg/injection, schedule: Q04DX002 (ip), vehicle: Klucel (hydroxypropylcellulose) (HPC)
[18] = dose: 200.0 mg/kg/injection, schedule: Q04DX002 (ip), vehicle: Klucel (hydroxypropylcellulose) (HPC)
[19] = dose: 400.0 mg/kg/injection, schedule: Q04DX002 (ip), vehicle: Klucel (hydroxypropylcellulose) (HPC)
[20] = dose: 100.0 mg/kg/injection, schedule: Q04DX003 (ip), vehicle: Klucel (hydroxypropylcellulose) (HPC)
[21] = dose: 200.0 mg/kg/injection, schedule: Q04DX003 (ip), vehicle: Klucel (hydroxypropylcellulose) (HPC)
[22] = dose: 400.0 mg/kg/injection, schedule: Q04DX003 (ip), vehicle: Klucel (hydroxypropylcellulose) (HPC)
[23] = dose: 100.0 mg/kg/injection, schedule: Q01DX009 (ip), vehicle: saline
[24] = dose: 100.0 mg/kg/injection, schedule: Q01DX009 (ip), vehicle: Klucel (hydroxypropylcellulose) (HPC)
[25] = dose: 200.0 mg/kg/injection, schedule: Q01DX009 (ip), vehicle: Klucel (hydroxypropylcellulose) (HPC)
[26] = dose: 400.0 mg/kg/injection, schedule: Q01DX009 (ip), vehicle: Klucel (hydroxypropylcellulose) (HPC)
[27] = dose: 100.0 mg/kg/injection, schedule: Q04DX003 (ip), vehicle: saline
[28] = dose: 200.0 mg/kg/injection, schedule: Q04DX003 (ip), vehicle: saline

## CC1C(C(N)=O)C(=O)OC1(C)C (stereo not given)
[1]
  T/C: 89 % of control
[2]
  T/C: 104 % of control
[3]
  T/C: 98 % of control

## CC(=O)Nc1ccc(NC(=O)c2ccc(Cl)cc2)cc1
dose: 50.0 mg/kg/injection, schedule: Q01DX001 (ip), vehicle: saline with Tween-80
  T/C: 95 % of control
dose: 100.0 mg/kg/injection, schedule: Q01DX001 (ip), vehicle: saline with Tween-80
  T/C: 95 % of control
[4]
  T/C: 97 % of control and 87 % of control
[5]
  T/C: 90 % of control and 91 % of control
[6]
  T/C: 92 % of control
dose: 200.0 mg/kg/injection, schedule: Q01DX001 (ip), vehicle: saline with Tween-80
  T/C: 90 % of control
[7]
  T/C: 95 % of control and 97 % of control
[8]
  T/C: 93 % of control and 97 % of control
[9]
  T/C: 89 % of control
dose: 400.0 mg/kg/injection, schedule: Q01DX001 (ip), vehicle: saline with Tween-80
  T/C: 87 % of control
[10]
  T/C: 97 % of control and 90 % of control
[11]
  T/C: 90 % of control and 92 % of control
[12]
  T/C: 87 % of control

## c1ccc(NC2=NCCN2)nc1
dose: 75.0 mg/kg/injection, schedule: Q01DX001 (ip), vehicle: saline
  T/C: 93 % of control

## Fc1cc(N(CCCl)CCCl)ccc1CN1CCCN(Cc2ccc(N(CCCl)CCCl)cc2F)C1c1ccc(N(CCCl)CCCl)cc1F
[13]
  T/C: 100 % of control
[14]
  T/C: 96 % of control
[15]
  T/C: 102 % of control
[16]
  T/C: 94 % of control

## CCOC(=O)CS(=O)(=O)CS(=O)(=O)CC(=O)OCC
[17]
  T/C: 94 % of control
[18]
  T/C: 100 % of control
[19]
  T/C: 100 % of control

## O=C(O)CCCCCC(=O)c1ccccc1
[17]
  T/C: 100 % of control
[18]
  T/C: 118 % of control
[19]
  T/C: 107 % of control

## CCCCCCCCC/C(C)=N\NC(=O)c1ccccc1
[20]
  T/C: 105 % of control
[21]
  T/C: 92 % of control
[22]
  T/C: 97 % of control

## FC(F)(F)COP1(OCC(F)(F)F)=NP(OCC(F)(F)F)(OCC(F)(F)F)=NP(c2ccccc2)(c2ccccc2)=N1
dose: 25.0 mg/kg/injection, schedule: Q01DX009 (ip), vehicle: saline
  T/C: 93 % of control
dose: 50.0 mg/kg/injection, schedule: Q01DX009 (ip), vehicle: saline
  T/C: 96 % of control
[23]
  T/C: 86 % of control

## O/N=C(/C(=N/O)c1ccccc1)c1ccccc1.O/N=C(/C(=N/O)c1ccccc1)c1ccccc1.[Ni]
[5]
  T/C: 97 % of control
[8]
  T/C: 97 % of control
[11]
  T/C: 93 % of control

## CCOC(=O)C[n+]1ccc(C(=O)c2cc3ccccc3[nH]2)cc1
[4]
  T/C: 93 % of control
[7]
  T/C: 92 % of control

## Nc1ccc([N+](=O)[O-])c(-c2ccccc2)c1[N+](=O)[O-]
[14]
  T/C: 91 % of control
[15]
  T/C: 91 % of control
[16]
  T/C: 91 % of control

## CCOC(=O)C(C)(C)CN(CC(C)(C)C(=O)OCC)C(C)(C)C
dose: 100.0 mg/kg/injection, schedule: Q01DX001 (ip), vehicle: saline sonified
  T/C: 87 % of control
dose: 200.0 mg/kg/injection, schedule: Q01DX001 (ip), vehicle: saline sonified
  T/C: 93 % of control
dose: 400.0 mg/kg/injection, schedule: Q01DX001 (ip), vehicle: saline sonified
  T/C: 91 % of control

## C=CCOCC(O)CN(C)c1ccccc1 (stereo not given)
[24]
  T/C: 101 % of control
[20]
  T/C: 96 % of control
[25]
  T/C: 112 % of control
[21]
  T/C: 95 % of control
[26]
  T/C: 91 % of control
[22]
  T/C: 93 % of control

## OCCOCCOCCOCCO
[1]
  T/C: 109 % of control
[2]
  T/C: 105 % of control
[3]
  T/C: 100 % of control

## c1nc2c([nH]1)CNCC2
[23]
  T/C: 94 % of control
[27]
  T/C: 100 % of control
dose: 200.0 mg/kg/injection, schedule: Q01DX009 (ip), vehicle: saline
  T/C: 93 % of control
[28]
  T/C: 98 % of control
dose: 400.0 mg/kg/injection, schedule: Q01DX009 (ip), vehicle: saline
  T/C: 94 % of control
dose: 400.0 mg/kg/injection, schedule: Q04DX003 (ip), vehicle: saline
  T/C: 108 % of control

## CC1(C)CC(N=Cc2ccccc2O)CC(C)(C)N1O
[6]
  T/C: 94 % of control
[9]
  T/C: 97 % of control
[12]
  T/C: 100 % of control

## COc1cc([N+](=O)[O-])ccc1NC(=O)Oc1cc(C)ccc1C(C)C
[24]
  T/C: 103 % of control
[25]
  T/C: 104 % of control
[26]
  T/C: 104 % of control

## COc1ccc(CC(N)C(=O)OC(C)C)cc1N(CCCl)CCCl (stereo not given)
dose: 1.5 mg/kg/injection, schedule: Q01DX001 (ip), vehicle: saline
  T/C: 108 % of control
dose: 3.0 mg/kg/injection, schedule: Q01DX001 (ip), vehicle: saline
  T/C: 113 % of control
dose: 6.0 mg/kg/injection, schedule: Q01DX001 (ip), vehicle: saline
  T/C: 97 % of control

## COc1ccc(NC(=O)Nc2ccc(C3=NCCCN3)cc2)cc1NC(=O)Nc1ccc(C2=NCCCN2)cc1
dose: 62.0 mg/kg/injection, schedule: Q01DX Z (ip), vehicle: carboxymethylcellulose (CMC)
  T/C: 115 % of control
dose: 62.0 mg/kg/injection, schedule: Q01DX Z (oral), vehicle: carboxymethylcellulose (CMC)
  T/C: 104 % of control
dose: 125.0 mg/kg/injection, schedule: Q01DX Z (oral), vehicle: carboxymethylcellulose (CMC)
  T/C: 98 % of control
dose: 250.0 mg/kg/injection, schedule: Q01DX Z (ip), vehicle: carboxymethylcellulose (CMC)
  T/C: 150 % of control
dose: 250.0 mg/kg/injection, schedule: Q01DX Z (oral), vehicle: carboxymethylcellulose (CMC)
  T/C: 104 % of control
dose: 500.0 mg/kg/injection, schedule: Q01DX Z (oral), vehicle: carboxymethylcellulose (CMC)
  T/C: 100 % of control

## Oc1ccc(Br)cc1-c1nc2cc3ccccc3cc2nc1-c1cc(Br)ccc1O
[1]
  T/C: 103 % of control
[2]
  T/C: 96 % of control
[3]
  T/C: 94 % of control

## C=CCCCCCCCCC(=O)NCc1cccnc1
[4]
  T/C: 96 % of control
[7]
  T/C: 94 % of control
[10]
  T/C: 102 % of control

## COC1C(COC(=O)c2ccccc2)OC2OC(C)(C)OC21 (stereo not given)
[13]
  T/C: 98 % of control
[14]
  T/C: 98 % of control
[15]
  T/C: 93 % of control
[16]
  T/C: 109 % of control

## CC(C)N(CC#N)C(C)C
dose: 0.25 mg/kg/injection, schedule: Q01DX009 (ip), vehicle: saline with Tween-80
  T/C: 93 % of control
dose: 0.5 mg/kg/injection, schedule: Q01DX009 (ip), vehicle: saline with Tween-80
  T/C: 95 % of control

## CCC[CH2][Sn]1([CH2]CCC)[O]C(=O)c2cccc([N+](=O)[O-])c2C(=O)[O]1
[1]
  T/C: 117 % of control

## CC(=O)c1ccc(N2CCCCC2)cc1
dose: 50.0 mg/kg/injection, schedule: Q01DX001 (ip), vehicle: saline
  T/C: 96 % of control
[1]
  T/C: 94 % of control
[2]
  T/C: 100 % of control
[3]
  T/C: 94 % of control

## C=C(C)C(=O)Oc1ccccc1-c1ccccc1
[17]
  T/C: 100 % of control
[18]
  T/C: 96 % of control
[19]
  T/C: 92 % of control

## CC(CC#N)NCC[P+](c1ccccc1)(c1ccccc1)c1ccccc1 (stereo not given)
[27]
  T/C: 95 % of control
[28]
  T/C: 96 % of control

## CC(C)(O)c1cnnn1CCC[CH2][Pb]([c]1ccccc1)([c]1ccccc1)[c]1ccccc1
[13]
  T/C: 102 % of control
[14]
  T/C: 105 % of control
[15]
  T/C: 102 % of control
[16]
  T/C: 96 % of control
